Reference: patent US6355799B1, “Substituted benzene compounds, process for their preparation, and herbicidal and defoliant compositions containing them” (ISK Americas Incorporated, priority 1997, dated 2002)

Experiments:
Format in all cases: in vivo
[1] = system: redroot pigweed (Amaranthus retroflexus, AMARE); assay: Pre-emerge test, greenhouse herbicide activity screening; conditions: pre-emerge, rated 14 days after application, 0 = no damage, 100 = complete death
Method in brief: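 Visual ratings on a 0-100 scale (0 no damage, 100 all plants dead) were taken at 14 days after treatment. Rates of 15-1000 g ai/ha in acetone, 187 l/ha, were sprayed onto soil one day after planting (pre-emerge) or onto 2-3 leaf plants with 0.25% v/v surfactant (post-emerge).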

[2] = system: barnyardgrass (Echinochloa crus-galli, ECHCG); assay: as above; conditions: pre-emerge, rated 14 days after application, 0 = no damage, 100 = complete death
Method in brief: (§1)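 Sandy loam pots; pre-emerge: sown 1 d pre-spray, surface-watered after, then bottom-watered. Post-emerge: sown 8–21 d before, 2–3 leaf stage, + 0.25% v/v NIS, bottom-watered. Acetone, 187 l/ha track spray, 15–1000 g ai/ha. 0–100 injury score, day 14.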

[3] = system: green foxtail (Setaria viridis, SETVI); assay: as above; conditions: pre-emerge, rated 14 days after application, 0 = no damage, 100 = complete death
Method in brief: as §1

[4] = system: ivyleaf morningglory (Ipomoea hederacea, IPOHE); assay: as above; conditions: pre-emerge, rated 14 days after application, 0 = no damage, 100 = complete death
Method in brief: as §1

[5] = system: johnsongrass (Sorghum halepense, SORHA); assay: as above; conditions: pre-emerge, rated 14 days after application, 0 = no damage, 100 = complete death
Method in brief: as §1

[6] = system: lambsquarters (Chenopodium album, CHEAL); assay: as above; conditions: pre-emerge, rated 14 days after application, 0 = no damage, 100 = complete death
Method in brief: as §1

[7] = system: large crabgrass (Digitaria sanguinalis, DIGSA); assay: as above; conditions: pre-emerge, rated 14 days after application, 0 = no damage, 100 = complete death
Method in brief: as §1

[8] = system: sicklepod (Cassia obtusifolia, CASOB); assay: as above; conditions: pre-emerge, rated 14 days after application, 0 = no damage, 100 = complete death
Method in brief: as §1

[9] = system: velvetleaf (Abutilon theophrasti, ABUTH); assay: as above; conditions: pre-emerge, rated 14 days after application, 0 = no damage, 100 = complete death
Method in brief: as §1

[10] = system: field corn (Zea mays L., var. Dekalb 535, CORN); assay: Pre-emerge test, crop safety; conditions: pre-emerge, rated 14 days after application, 0 = no damage, 100 = complete death
Method in brief: (§2)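 Rating: 0–100 visual injury, 14 DAA. Application: acetone, 187 l/ha, 15–1000 g ai/ha, flat-fan track sprayer with nozzle 40–45 cm above soil or canopy. Post-emerge runs used 0.25% v/v surfactant on 2–3 leaf plants.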

[11] = system: upland rice (Oryza sp., var. Tebonnet, RICE); assay: Pre-emerge test, crop safety; conditions: pre-emerge, rated 14 days after application, 0 = no damage, 100 = complete death
Method in brief: as §2

[12] = system: barnyardgrass (Echinochloa crus-galli, ECHCG); assay: Post-emerge test, greenhouse herbicide activity screening; conditions: phytotoxicity rating 0-100 (0 no damage, 100 complete death), 14 days after application
Method in brief: (§3)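 Each test used a mechanized track sprayer delivering 187 l/ha of acetone solution at 15–1000 g ai/ha. Post-emerge foliage at 2–3 leaves was treated with added 0.25% v/v non-ionic surfactant and bottom-watered only. Injury was assessed on day 14, where 100 means total kill.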

[13] = system: green foxtail (Setaria viridis, SETVI); assay: as above; conditions: phytotoxicity rating 0-100 (0 no damage, 100 complete death), 14 days after application
Method in brief: as §3

[14] = system: ivyleaf morningglory (Ipomoea hederacea, IPOHE); assay: as above; conditions: phytotoxicity rating 0-100 (0 no damage, 100 complete death), 14 days after application
Method in brief: as §3

[15] = system: johnsongrass (Sorghum halepense, SORHA); assay: as above; conditions: phytotoxicity rating 0-100 (0 no damage, 100 complete death), 14 days after application
Method in brief: as §3

[16] = system: lambsquarters (Chenopodium album, CHEAL); assay: as above; conditions: phytotoxicity rating 0-100 (0 no damage, 100 complete death), 14 days after application
Method in brief: as §3

[17] = system: large crabgrass (Digitaria sanguinalis, DIGSA); assay: as above; conditions: phytotoxicity rating 0-100 (0 no damage, 100 complete death), 14 days after application
Method in brief: as §3

[18] = system: redroot pigweed (Amaranthus retroflexus, AMARE); assay: as above; conditions: phytotoxicity rating 0-100 (0 no damage, 100 complete death), 14 days after application
Method in brief: as §3

[19] = system: sicklepod (Cassia obtusifolia, CASOB); assay: as above; conditions: phytotoxicity rating 0-100 (0 no damage, 100 complete death), 14 days after application
Method in brief: as §3

[20] = system: velvetleaf (Abutilon theophrasti, ABUTH); assay: as above; conditions: phytotoxicity rating 0-100 (0 no damage, 100 complete death), 14 days after application
Method in brief: as §3

[21] = system: field corn (Zea mays L., var. Dekalb 535, CORN); assay: Post-emerge test, crop safety; conditions: phytotoxicity rating 0-100 (0 no damage, 100 complete death), 14 days after application
Method in brief: as §1

[22] = system: upland rice (Oryza sp., var. Tebonnet, RICE); assay: Post-emerge test, crop safety; conditions: phytotoxicity rating 0-100 (0 no damage, 100 complete death), 14 days after application
Method in brief: as §1

COc1c(Cl)cc(F)c(-n2c(=O)cc(C(F)(F)F)n(C)c2=O)c1N(C(=O)C1CC1)C(=O)C1CC1 [2-18]
Pre-emerge Herbicidal Activity AMARE (phytotoxicity rating, scale 0-100) ([1]; 63 g ai/ha): 40 | Pre-emerge Herbicidal Activity AMARE (phytotoxicity rating, scale 0-100) ([1]; 250 g ai/ha): 100 | Pre-emerge Herbicidal Activity ECHCG (phytotoxicity rating, scale 0-100) ([2]; 63 g ai/ha): 0 | Pre-emerge Herbicidal Activity ECHCG (phytotoxicity rating, scale 0-100) ([2]; 250 g ai/ha): 0 | Pre-emerge Herbicidal Activity SETVI (phytotoxicity rating, scale 0-100) ([3]; 63 g ai/ha): 0 | Pre-emerge Herbicidal Activity SETVI (phytotoxicity rating, scale 0-100) ([3]; 250 g ai/ha): 80 | Pre-emerge Herbicidal Activity IPOHE (phytotoxicity rating, scale 0-100) ([4]; 63 g ai/ha): 0 | Pre-emerge Herbicidal Activity IPOHE (phytotoxicity rating, scale 0-100) ([4]; 250 g ai/ha): 40 | Pre-emerge Herbicidal Activity SORHA (phytotoxicity rating, scale 0-100) ([5]; 63 g ai/ha): 0 | Pre-emerge Herbicidal Activity SORHA (phytotoxicity rating, scale 0-100) ([5]; 250 g ai/ha): 0 | Pre-emerge Herbicidal Activity CHEAL (phytotoxicity rating, scale 0-100) ([6]; 63 g ai/ha): 10 | Pre-emerge Herbicidal Activity CHEAL (phytotoxicity rating, scale 0-100) ([6]; 250 g ai/ha): 90 | Pre-emerge Herbicidal Activity DIGSA (phytotoxicity rating, scale 0-100) ([7]; 63 g ai/ha): 0 | Pre-emerge Herbicidal Activity DIGSA (phytotoxicity rating, scale 0-100) ([7]; 250 g ai/ha): 0 | Pre-emerge Herbicidal Activity CASOB (phytotoxicity rating, scale 0-100) ([8]; 63 g ai/ha): 0 | Pre-emerge Herbicidal Activity CASOB (phytotoxicity rating, scale 0-100) ([8]; 250 g ai/ha): 40 | Pre-emerge Herbicidal Activity ABUTH (phytotoxicity rating, scale 0-100) ([9]; 63 g ai/ha): 0 | Pre-emerge Herbicidal Activity ABUTH (phytotoxicity rating, scale 0-100) ([9]; 250 g ai/ha): 100 | Pre-emerge crop damage CORN (phytotoxicity rating, scale 0-100) ([10]; 63 g ai/ha): 0 | Pre-emerge crop damage CORN (phytotoxicity rating, scale 0-100) ([10]; 250 g ai/ha): 0 | Pre-emerge crop damage RICE (phytotoxicity rating, scale 0-100) ([11]; 63 g ai/ha): 0 | Pre-emerge crop damage RICE (phytotoxicity rating, scale 0-100) ([11]; 250 g ai/ha): 20 | Post-emerge Herbicidal Activity ECHCG ([12]; 63 g ai/ha): 0 | Post-emerge Herbicidal Activity ECHCG ([12]; 250 g ai/ha): 0 | Post-emerge Herbicidal Activity SETVI ([13]; 63 g ai/ha): 0 | Post-emerge Herbicidal Activity SETVI ([13]; 250 g ai/ha): 0 | Post-emerge Herbicidal Activity IPOHE ([14]; 63 g ai/ha): 0 | Post-emerge Herbicidal Activity IPOHE ([14]; 250 g ai/ha): 30 | Post-emerge Herbicidal Activity SORHA ([15]; 63 g ai/ha): 0 | Post-emerge Herbicidal Activity SORHA ([15]; 250 g ai/ha): 0 | Post-emerge Herbicidal Activity CHEAL ([16]; 63 g ai/ha): 0 | Post-emerge Herbicidal Activity CHEAL ([16]; 250 g ai/ha): 50 | Post-emerge Herbicidal Activity DIGSA ([17]; 63 g ai/ha): 0 | Post-emerge Herbicidal Activity DIGSA ([17]; 250 g ai/ha): 0 | Post-emerge Herbicidal Activity AMARE ([18]; 63 g ai/ha): 0 | Post-emerge Herbicidal Activity AMARE ([18]; 250 g ai/ha): 95 | Post-emerge Herbicidal Activity CASOB ([19]; 63 g ai/ha): 0 | Post-emerge Herbicidal Activity CASOB ([19]; 250 g ai/ha): 10 | Post-emerge Herbicidal Activity ABUTH ([20]; 63 g ai/ha): 0 | Post-emerge Herbicidal Activity ABUTH ([20]; 250 g ai/ha): 40 | Post-emerge Herbicidal Activity CORN (crop damage) ([21]; 63 g ai/ha): 0 | Post-emerge Herbicidal Activity CORN (crop damage) ([21]; 250 g ai/ha): 0 | Post-emerge Herbicidal Activity RICE (crop damage) ([22]; 63 g ai/ha): 0 | Post-emerge Herbicidal Activity RICE (crop damage) ([22]; 250 g ai/ha): 0
